Laboratory results published in the supplement of paper PMC10883282.
Where a name gives a salt, the structure may show the parent alone. ± gives the standard deviation of the averaged measurements.

Tested on: KHOS-240S
Experiment: relative viability vs DMSO control (72 h) (fraction); higher = more viable cells
In short: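 Serially diluted compound, 2.5 µl from source plates spanning 10 mM to 0.0002 mM, was added 24 h after sarcoma cell lines were seeded in 384-well plates at densities targeting 80–90% confluence. Plates then sat 72 h at 37 °C, 5% CO2, with 0.1% DMSO vehicle and a 5 µM positive control. Relative viability came from ATPLite as percent growth, averaged over up to triplicate wells, and was rescaled with 1 as full and 0 as none.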

Structure (SMILES) | relative viability (0.00017 µM) | relative viability (0.00051 µM) | relative viability (0.00152 µM) | relative viability (0.00457 µM) | relative viability (0.01372 µM) | relative viability (0.04115 µM) | relative viability (0.1235 µM) | relative viability (0.3704 µM) | relative viability (1.111 µM) | relative viability (3.333 µM) | relative viability (10 µM) | relative viability (2 pM) | relative viability (5 pM) | relative viability (15 pM) | relative viability (50 pM) | relative viability (0.00014 µM) | relative viability (0.00041 µM) | relative viability (0.0012 µM) | relative viability (0.0037 µM) | relative viability (0.011 µM) | relative viability (200 fM) | relative viability (600 fM)
Cc1ccc(F)c(NC(=O)Nc2ccc(-c3cccc4[nH]nc(N)c34)cc2)c1 [Linifanib] | 1.06 ± 0.02 | 1.08 ± 0.08 | 1.059 ± 0.0094 | 1.07 ± 0.031 | 1.05 ± 0.029 | 1.08 ± 0.041 | 1.03 ± 0.049 | 1.04 ± 0.054 | 1.06 ± 0.043 | 1.04 ± 0.011 | 0.999 ± 0.054 | – | – | – | – | – | – | – | – | – | – | –
CC(C)N1CCN(Cc2cnc(-c3cc(-c4cccc5[nH]ccc45)cc4[nH]ncc34)o2)CC1 [Nemiralisib] | 0.971 ± 0.016 | 0.972 ± 0.027 | 0.98 ± 0.026 | 0.971 ± 0.024 | 0.966 ± 0.017 | 0.939 ± 0.018 | 0.956 ± 0.027 | 0.927 ± 0.035 | 0.93 ± 0.041 | 0.759 ± 0.018 | 0.455 ± 0.026 | – | – | – | – | – | – | – | – | – | – | –
COCc1c(-c2cc3cc(C)cc(OC)c3s2)c2c(N)ncnn2c1CN1CCNC(=O)C1 [Rogaratinib] | 1.04 ± 0.015 | 1.07 ± 0.028 | 1.07 ± 0.046 | 1.07 ± 0.061 | 1.03 ± 0.011 | 0.995 ± 0.053 | 0.9 ± 0.025 | 0.821 ± 0.019 | 0.783 ± 0.045 | 0.671 ± 0.046 | 0.511 ± 0.036 | – | – | – | – | – | – | – | – | – | – | –
Cc1cc(Nc2ncnc3ccc(NC4=NC(C)(C)CO4)cc23)ccc1Oc1ccn2ncnc2c1 [Tucatinib] | 1.06 ± 0.019 | 1.11 ± 0.022 | 1.09 ± 0.036 | 1.07 ± 0.031 | 1.075 ± 0.0081 | 1.09 ± 0.03 | 1.08 ± 0.025 | 1.07 ± 0.027 | 1.05 ± 0.054 | 1.01 ± 0.022 | 0.953 ± 0.051 | – | – | – | – | – | – | – | – | – | – | –
O=C(Nc1cnn2ccc(N3CCC[C@@H]3c3cc(F)ccc3F)nc12)N1CC[C@H](O)C1 [Larotrectinib] | 1.1 ± 0.045 | 1.07 ± 0.064 | 1.1 ± 0.091 | 1.07 ± 0.093 | 1.05 ± 0.066 | 1.05 ± 0.02 | 1.09 ± 0.066 | 1.09 ± 0.068 | 1.06 ± 0.06 | 1.07 ± 0.079 | 1.05 ± 0.082 | – | – | – | – | – | – | – | – | – | – | –
CN1CCC(COc2cnc(-c3cccc(Cn4nc(-c5cccc(C#N)c5)ccc4=O)c3)nc2)CC1 [Tepotinib] | 1.09 ± 0.051 | 1.09 ± 0.014 | 1.1 ± 0.043 | 1.09 ± 0.035 | 1.04 ± 0.019 | 1.08 ± 0.045 | 1.04 ± 0.045 | 1.02 ± 0.031 | 1 ± 0.017 | 0.94 ± 0.095 | 0.593 ± 0.022 | – | – | – | – | – | – | – | – | – | – | –
C[C@@H]1CCN(C(=O)CC#N)C[C@@H]1N(C)c1ncnc2[nH]ccc12 [Tofacitinib] | 1.08 ± 0.068 | 1.05 ± 0.038 | 1.08 ± 0.062 | 1.09 ± 0.069 | 1.05 ± 0.031 | 1.05 ± 0.034 | 1.06 ± 0.08 | 1.03 ± 0.043 | 1.01 ± 0.076 | 0.977 ± 0.021 | 0.853 ± 0.075 | – | – | – | – | – | – | – | – | – | – | –
N#CC[C@H](C1CCCC1)n1cc(-c2ncnc3[nH]ccc23)cn1 [Ruxolitinib] | 0.984 ± 0.0066 | 0.984 ± 0.012 | 0.97 ± 0.043 | 0.975 ± 0.025 | 0.95 ± 0.035 | 0.966 ± 0.028 | 0.943 ± 0.037 | 0.912 ± 0.037 | 0.88 ± 0.024 | 0.773 ± 0.037 | 0.583 ± 0.015 | – | – | – | – | – | – | – | – | – | – | –
C=CC(=O)N1CCC[C@@H](n2nc(-c3ccc(Oc4ccccc4)cc3)c3c(N)ncnc32)C1 [Ibrutinib] | 1.03 ± 0.038 | 1.08 ± 0.064 | 1.09 ± 0.078 | 1.09 ± 0.079 | 1.05 ± 0.054 | 1.08 ± 0.053 | 1.05 ± 0.1 | 1.05 ± 0.081 | 0.979 ± 0.045 | 0.884 ± 0.035 | 0.587 ± 0.015 | – | – | – | – | – | – | – | – | – | – | –
COc1c(OCCCN2CCOCC2)ccc2c1N=C(NC(=O)c1cnc(N)nc1)N1CCN=C21 [Copanlisib] | 1.09 ± 0.041 | 1.02 ± 0.048 | 1.06 ± 0.013 | 0.922 ± 0.094 | 0.889 ± 0.098 | 0.833 ± 0.09 | 0.714 ± 0.014 | 0.629 ± 0.022 | 0.409 ± 0.018 | 0.217 ± 0.008 | 0.188 ± 0.003 | – | – | – | – | – | – | – | – | – | – | –
COc1cccc2c1C(=O)c1c(O)c3c(c(O)c1C2=O)C[C@@](O)(C(=O)CO)C[C@@H]3O[C@H]1C[C@H](N)[C@H](O)[C@H](C)O1 [Doxorubicin Hydrochloride] | 1.08 ± 0.041 | 1.05 ± 0.033 | 1.05 ± 0.026 | 1.07 ± 0.039 | 0.996 ± 0.042 | 0.654 ± 0.045 | 0.459 ± 0.011 | 0.241 ± 0.018 | 0.109 ± 0.0065 | 0.124 ± 0.021 | 0.106 ± 0.0059 | – | – | – | – | – | – | – | – | – | – | –
CO[C@H]1C[C@@H]2CC[C@@H](C)[C@@](O)(O2)C(=O)C(=O)N2CCCC[C@H]2C(=O)O[C@H]([C@H](C)C[C@@H]2CC[C@@H](OP(C)(C)=O)[C@H](OC)C2)CC(=O)[C@H](C)/C=C(\C)[C@@H](O)[C@@H](OC)C(=O)[C@H](C)C[C@H](C)/C=C/C=C/C=C/1C [Ridaforolimus] | 1.03 ± 0.012 | 1.03 ± 0.027 | 0.987 ± 0.027 | 0.932 ± 0.015 | 0.919 ± 0.026 | 0.898 ± 0.022 | 0.878 ± 0.014 | 0.851 ± 0.016 | 0.826 ± 0.032 | 0.777 ± 0.018 | 0.741 ± 0.017 | – | – | – | – | – | – | – | – | – | – | –
COc1cc2nccc(Oc3ccc(NC(=O)Nc4cc(C)on4)c(Cl)c3)c2cc1OC [Tivozanib] | 1.07 ± 0.061 | 1.07 ± 0.061 | 1.09 ± 0.071 | 1.09 ± 0.059 | 1.08 ± 0.025 | 1.07 ± 0.041 | 1.06 ± 0.018 | 1.045 ± 0.0038 | 1.02 ± 0.042 | 0.908 ± 0.027 | 0.561 ± 0.02 | – | – | – | – | – | – | – | – | – | – | –
C[C@@H](c1ccc2nccn2c1)n1nnc2ncc(-c3cnn(C)c3)nc21 [Volitinib] | 1.041 ± 0.0092 | 1.044 ± 0.0082 | 1.07 ± 0.036 | 1.07 ± 0.024 | 1.077 ± 0.006 | 1.101 ± 0.007 | 1.09 ± 0.013 | 1.078 ± 0.0062 | 1.083 ± 0.0058 | 1.049 ± 0.0046 | 1.05 ± 0.021 | – | – | – | – | – | – | – | – | – | – | –
COc1cc2c(cc1O)CCN[C@]21CS[C@@H]2c3c(OC(C)=O)c(C)c4c(c3[C@H](COC1=O)N1[C@@H]2[C@H]2c3c(cc(C)c(OC)c3O)C[C@@H]([C@@H]1O)N2C)OCO4 [Trabectedin] | – | – | – | – | – | – | – | – | – | – | – | 1.07 ± 0.015 | 1.082 ± 0.0023 | 1.07 ± 0.042 | 0.946 ± 0.034 | 0.482 ± 0.054 | 0.00547 ± 0.0011 | 0.0576 ± 0.0015 | 0.0794 ± 0.014 | 0.0885 ± 0.032 | 1.08 ± 0.022 | 1.08 ± 0.022
Cc1nc(-c2cn3c(n2)-c2ccc(-c4cnn(C(C)(C)C(N)=O)c4)cc2OCC3)n(C(C)C)n1 [Taselisib] | 1.03 ± 0.013 | 1.03 ± 0.024 | 1.01 ± 0.031 | 1.02 ± 0.049 | 0.952 ± 0.029 | 0.911 ± 0.012 | 0.856 ± 0.018 | 0.793 ± 0.041 | 0.725 ± 0.037 | 0.684 ± 0.049 | 0.566 ± 0.017 | – | – | – | – | – | – | – | – | – | – | –
COc1cc2c(Oc3ccc4[nH]c(C)cc4c3F)ncnc2cc1OCCCN1CCCC1 [Cediranib] | 1.06 ± 0.017 | 1.05 ± 0.021 | 1.082 ± 0.0088 | 1.07 ± 0.02 | 1.05 ± 0.013 | 1.03 ± 0.011 | 0.992 ± 0.015 | 0.922 ± 0.022 | 0.908 ± 0.013 | 0.906 ± 0.032 | 0.898 ± 0.015 | – | – | – | – | – | – | – | – | – | – | –
Cc1nc(NC(=O)N2CCC[C@H]2C(N)=O)sc1-c1ccnc(C(C)(C)C(F)(F)F)c1 [Alpelisib] | 1.05 ± 0.071 | 1.07 ± 0.02 | 1.03 ± 0.054 | 1.05 ± 0.054 | 1.02 ± 0.061 | 1.01 ± 0.048 | 0.914 ± 0.055 | 0.907 ± 0.039 | 0.825 ± 0.065 | 0.791 ± 0.04 | 0.697 ± 0.054 | – | – | – | – | – | – | – | – | – | – | –
COc1cc2/c(=N/c3ccc(Br)cc3F)nc[nH]c2cc1OCC1CCN(C)CC1 [Vandetanib] | 1.03 ± 0.078 | 1.03 ± 0.048 | 1.02 ± 0.042 | 1.05 ± 0.048 | 1.05 ± 0.06 | 1.05 ± 0.045 | 0.99 ± 0.022 | 1.01 ± 0.026 | 0.908 ± 0.014 | 0.4145 ± 0.0025 | 0.0298 ± 0.0027 | – | – | – | – | – | – | – | – | – | – | –
